Laboratory results from patent US20240115557A1, “INHIBITORS OF RNA-GUIDED NUCLEASES AND USES THEREOF” (The Brigham and Women's Hospital, Inc., priority 2022, published 2024).

Target: SpCas9 (Streptococcus pyogenes serotype M1, UniProt Q99ZW2)
Assay: eGFP disruption assay, SpCas9, U2OS.eGFP.PEST cells
Assay type: cell-based
Details: for Normalized Z rep1 / Z score Rep1: replicate 1; for SpCas9 eGFP disruption Rep1: replicate 1, raw readout; for Normalized Z rep2 / Z socre Rep2: replicate 2; for SpCas9 eGFP disruption Rep2: replicate 2, raw readout
From the text: In some embodiments, the secondary assay may be an EGFP disruption assay. In such assay, a quantitative human cell-based reporter assay that enables rapid quantitation of targeted nuclease activities is used to characterize off-target cleavage of Cas9-based RNA guided endonucleases. In this assay, the activities of nucleases targeted to a single integrated EGFP reporter gene can be quantified by assessing loss of fluorescence signal in human U2OS.EGFP cells caused by inactivating frameshift insertion/deletion (indel) mutations introduced by error prone non-homologous end-joining (NHEJ) repair of nuclease-induced double-stranded breaks (DSBs).
In one protocol, U2OS.EGFP cells harboring a single integrated copy of an EGFP-PEST fusion gene are cultured (see e.g., Reyon et al., Nat Biotech 30, 460-465 (2012), which is herein incorporated by reference in its entirety). For transfections, 200,000 cells are Nucleofected with gRNA expression plasmid and pJDS246 together with 30 ng of a Td-tomato-encoding plasmid using the SE Cell Line 4D-Nucleofector™ X Kit (Lonza) according to the manufacturer's protocol. Cells are analyzed 2 days post-transfection using a BD LSRII flow cytometer. Transfections for optimizing gRNA/Cas9 plasmid concentration are performed in triplicate and all other transfections are performed in duplicate. PCR amplification is used for sequence verification of endogenous human genomic sites. PCR reactions are performed using Phusion Hot Start II high-fidelity DNA polymerase (NEB). Loci are amplified using touchdown PCR (98° C., 10 s; 72-62° C., −1° C./cycle, 15s; 72° C., 30 s] 10 cycles, [98° C., 10s; 62° C., 15s; 72° C., 30 s] 25 cycles). Alternatively, PCR for other targets is performed with 35 cycles at a constant annealing temperature of 68° C. or 72° C., and 3% DMSO or IM betaine, if necessary. PCR products are analyzed on a QIAXCEL capillary electrophoresis system to verify both size and purity. Validated products are treated with ExoSap-IT (Affymetrix) and sequenced by the Sanger method (MGH DNA Sequencing Core) to verify each target site.
Primary and secondary screening. The primary screen assayed a selection of unique chemical scaffolds derived from commercially available compounds and known bioactive molecular libraries (Table 7). Auto-fluorescent compounds were removed by a counter screen. Overall, the CAA was used to assay 122,409 small molecules with over 2,500 unique chemical scaffolds (FIG. 64F, Table 7). Of these compounds, 547 were selected as hits (Z score >3 in both replicates) for testing in orthogonal cell-based secondary assays. Hits were tested in duplicate in an eGFP disruption assay, wherein U2OS.eGFP.PEST cells^33 transfected with SpCas9 plasmid and eGFP-targeting gRNA plasmid were incubated with 20 μM of the compounds. In this assay, any compound that inhibited SpCas9 would rescue the loss of eGFP fluorescence. Here, toxic and auto-fluorescent compounds with a high GFP signal in cells were removed as false positives. […] Next, Applicants tested the 15 compounds in a luminescence-based gain-of-signal HiBiT knock-in assay, which involves SpCas9-mediated homology-directed tagging of GAPDH with a short peptide that luminesces upon complementation with a subunit derived from nanoluciferase.^34 Complementarily, the eGFP-disruption assay is fluorescence-based and involves error-prone DNA repair. As a counter-screen to remove false positives caused by cell death (viability <80%), the cell viability was measured after incubation.
For SAR studies and dose-response studies, 300,000 U2OS.eGFP.PEST cells were nucleofected with 300 ng of SpCas9 plasmid (Addgene #43861) and 30 ng of eGFP-targeting gRNA plasmid (Addgene #47511)^33 using SE Cell Line 4D-Nucleofector X Kit (Lonza) following the pulse program of DN-100. For RNP-based genome editing, 10 pmol of SpCas9 (GenScript #Z03385) and 12 pmol of gRNA were mixed and incubated for 5 min. […]

[1] = Cas9 = lower control, Ctrl = upper control
[2] = normalized, lower control about 0, upper control about 1

Sequence of SpCas9 (Q99ZW2 whole entry): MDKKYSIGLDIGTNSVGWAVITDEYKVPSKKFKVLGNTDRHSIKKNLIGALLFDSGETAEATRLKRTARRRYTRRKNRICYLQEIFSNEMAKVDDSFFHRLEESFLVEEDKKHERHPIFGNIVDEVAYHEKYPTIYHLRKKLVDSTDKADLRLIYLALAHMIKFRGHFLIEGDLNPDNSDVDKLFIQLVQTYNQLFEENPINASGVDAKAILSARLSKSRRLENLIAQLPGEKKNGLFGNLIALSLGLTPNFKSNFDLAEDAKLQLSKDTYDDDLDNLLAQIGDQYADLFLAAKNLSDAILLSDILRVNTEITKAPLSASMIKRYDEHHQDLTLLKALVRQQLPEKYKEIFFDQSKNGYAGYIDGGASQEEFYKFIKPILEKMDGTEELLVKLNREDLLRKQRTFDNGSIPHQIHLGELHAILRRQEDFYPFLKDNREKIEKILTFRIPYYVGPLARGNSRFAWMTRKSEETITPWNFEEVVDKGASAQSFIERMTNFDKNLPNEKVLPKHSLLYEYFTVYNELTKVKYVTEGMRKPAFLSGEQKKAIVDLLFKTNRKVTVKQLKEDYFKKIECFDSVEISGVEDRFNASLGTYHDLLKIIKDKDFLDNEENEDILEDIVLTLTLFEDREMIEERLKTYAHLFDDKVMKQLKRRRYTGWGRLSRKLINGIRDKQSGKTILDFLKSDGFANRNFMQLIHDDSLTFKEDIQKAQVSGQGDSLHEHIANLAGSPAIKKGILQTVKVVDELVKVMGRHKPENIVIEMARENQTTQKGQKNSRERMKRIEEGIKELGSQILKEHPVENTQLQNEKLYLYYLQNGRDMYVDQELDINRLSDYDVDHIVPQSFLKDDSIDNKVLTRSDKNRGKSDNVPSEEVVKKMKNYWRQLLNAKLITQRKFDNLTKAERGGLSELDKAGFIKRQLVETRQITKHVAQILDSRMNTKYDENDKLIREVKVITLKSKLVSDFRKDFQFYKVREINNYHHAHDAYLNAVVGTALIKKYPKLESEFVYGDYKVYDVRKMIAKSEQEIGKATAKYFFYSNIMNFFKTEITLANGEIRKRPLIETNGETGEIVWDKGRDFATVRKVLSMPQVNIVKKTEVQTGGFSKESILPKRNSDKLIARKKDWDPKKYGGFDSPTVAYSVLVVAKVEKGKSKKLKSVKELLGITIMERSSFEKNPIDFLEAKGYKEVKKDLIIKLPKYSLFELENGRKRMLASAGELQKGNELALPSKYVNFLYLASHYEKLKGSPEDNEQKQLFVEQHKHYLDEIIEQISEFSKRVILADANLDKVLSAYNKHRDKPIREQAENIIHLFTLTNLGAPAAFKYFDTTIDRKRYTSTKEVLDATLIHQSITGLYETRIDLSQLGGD

| SMILES | Normalized Z rep1 | Z score Rep1 | SpCas9 eGFP disruption Rep1 | Normalized Z rep2 | Z socre Rep2 | SpCas9 eGFP disruption Rep2 | SpCas9 eGFP disruption Rep1 [1] | Normalized Z rep1 [2] | SpCas9 eGFP disruption Rep2 [1] | Normalized Z rep2 [2] |
| --- | --- | --- | --- | --- | --- | --- | --- | --- | --- | --- |
| COc1ccc(-c2nnc3sc(-c4cccnc4)nn23)cc1OC [Compound D727-0025] | −0.28 | −2.04 | 60.269 | −0.11 | −1.05 | 59.908 | – | – | – | – |
| Cc1ccc(-c2nn3c(-c4cccnc4)nnc3s2)cc1 [Compound D727-0047] | −0.34 | −2.47 | 58.846 | −0.29 | −2.72 | 54.891 | – | – | – | – |
| Brc1cccc(-c2nn3c(-c4cccnc4)nnc3s2)c1 [Compound D727-0051] | 0.02 | 0.13 | 67.429 | 0.08 | 0.79 | 65.459 | – | – | – | – |
| c1cncc(-c2nnc3sc(Cc4ccc5c(c4)OCCO5)nn23)c1 [Compound D727-0088] | −0.24 | −1.77 | 61.161 | −0.08 | −0.75 | 60.83 | – | – | – | – |
| COc1ccc(Cc2nnc3sc(-c4ccccc4OC)nn23)cc1 [Compound D727-0159] | −0.57 | −4.09 | 53.496 | −0.23 | −2.11 | 56.714 | – | – | – | – |
| Cc1nc2ccccc2n1Cc1nnc2sc(-c3cccnc3)nn12 [Compound D727-0182] | −0.45 | −3.22 | 56.36 | 0.14 | 1.30 | 67.01 | – | – | – | – |
| Fc1cccc(-c2nnc3sc(CCCc4ccccc4)nn23)c1 [Compound D727-0404] | −0.14 | −0.99 | 63.741 | −0.34 | −3.13 | 53.633 | – | – | – | – |
| Brc1cccc(-c2nn3c(-c4ccccn4)nnc3s2)c1 [Compound D727-0489] | −0.24 | −1.76 | 61.183 | −0.06 | −0.58 | 61.347 | – | – | – | – |
| Clc1ccccc1OCc1nn2c(-c3ccccn3)nnc2s1 [Compound D727-0524] | −0.39 | −2.83 | 57.663 | −0.16 | −1.47 | 58.659 | – | – | – | – |
| c1ccc(-c2nnc3sc(-c4ccc5c(c4)OCO5)nn23)nc1 [Compound D727-0536] | −0.16 | −1.18 | 63.106 | −0.09 | −0.86 | 60.482 | – | – | – | – |
| COc1ccc(CCc2nnc3sc(-c4ccncc4)nn23)cc1OC [Compound D727-0712] | −0.16 | −1.13 | 63.284 | −0.29 | −2.66 | 55.062 | – | – | – | – |
| Cc1nn(-c2ccccc2)c(C)c1CCc1nnc2sc(-c3ccccc3F)nn12 [Compound D727-0713] | – | 0.38 | – | – | 1.08 | – | 68.26 | 0.05 | 66.347 | 0.12 |
| COc1ccc(-c2nn3c(-c4ccc5ccccc5n4)nnc3s2)cc1OC [Compound D727-0743] | −0.03 | −0.23 | 66.254 | −0.13 | −1.19 | 59.503 | – | – | – | – |
| CN(C)c1cccc(-c2nn3c(-c4ccc5ccccc5c4)nnc3s2)c1 [Compound D727-0754] | −0.15 | −1.06 | 63.517 | −0.59 | −5.54 | 46.376 | – | – | – | – |
| CN(C)c1ccc(-c2nn3c(-c4ccc5ccccc5n4)nnc3s2)cc1 [Compound D727-0755] | −0.11 | −0.83 | 64.271 | −0.09 | −0.79 | 60.694 | – | – | – | – |
| Cc1nn(-c2ccccc2)c(C)c1CCc1nn2c(-c3cccc(F)c3)nnc2s1 [Compound D727-0828] | −0.36 | −2.61 | 58.376 | −0.14 | −1.34 | 59.045 | – | – | – | – |
| Cc1nn(-c2ccccc2)c(C)c1CCc1nn2c(-c3ccncc3)nnc2s1 [Compound D727-0837] | −0.15 | −1.06 | 63.496 | −0.11 | −1.05 | 59.923 | – | – | – | – |
| Cc1nn(-c2ccccc2)c(C)c1CCc1nn2c(-c3cnccn3)nnc2s1 [Compound D727-0838] | −0.12 | −0.86 | 64.17 | −0.21 | −1.92 | 57.281 | – | – | – | – |
| Fc1ccc(-c2nn3c(-c4ccncc4)nnc3s2)cc1Br [Compound D727-0883] | −0.13 | −0.93 | 63.924 | −0.09 | −0.88 | 60.422 | – | – | – | – |
